This is an account of results in ChEMBL document CHEMBL1133610, “GRID/CPCA: a new computational tool to design selective ligands” (J Med Chem, 2000).

One experiment concerns the target Prothrombin (Homo sapiens, UniProt P00734). Description: Inhibitory activity against human thrombin.
Experiment [1] has as its target T1, Coagulation factor X (Homo sapiens, UniProt P00742). Briefly: Inhibitory activity against human Coagulation factor Xa.
Experiment [2] concerns the target T1, Coagulation factor X. Description: Inhibitory Activity against Coagulation factor X.
Another experiment has as its target Serine protease 1 (Homo sapiens, UniProt P07477). Description: Inhibitory Activity against Trypsin.

The structures appear in SMILES notation. Some results are limits rather than exact numbers.

T1 sequence (P00742 41-179 limits assumed): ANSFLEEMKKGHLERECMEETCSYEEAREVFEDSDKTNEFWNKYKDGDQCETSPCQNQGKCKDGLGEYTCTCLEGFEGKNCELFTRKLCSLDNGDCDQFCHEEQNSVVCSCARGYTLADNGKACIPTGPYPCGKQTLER
T1 sequence (P00742 235-488 limits assumed): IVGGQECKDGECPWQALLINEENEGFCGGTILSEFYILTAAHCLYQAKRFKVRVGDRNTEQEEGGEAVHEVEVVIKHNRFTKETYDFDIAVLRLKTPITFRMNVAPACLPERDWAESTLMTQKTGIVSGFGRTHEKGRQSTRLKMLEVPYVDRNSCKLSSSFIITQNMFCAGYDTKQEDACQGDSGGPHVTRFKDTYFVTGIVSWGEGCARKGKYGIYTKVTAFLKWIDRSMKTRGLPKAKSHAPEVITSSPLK
Sequence of Serine protease 1 (P07477 whole entry): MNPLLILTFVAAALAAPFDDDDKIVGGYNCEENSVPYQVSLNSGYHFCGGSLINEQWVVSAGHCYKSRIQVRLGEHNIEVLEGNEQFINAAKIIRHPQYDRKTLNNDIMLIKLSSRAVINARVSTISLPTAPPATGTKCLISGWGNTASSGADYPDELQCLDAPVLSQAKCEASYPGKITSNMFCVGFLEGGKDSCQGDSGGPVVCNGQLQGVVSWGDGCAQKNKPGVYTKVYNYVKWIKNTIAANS

For `N=C(N)c1cccc(-c2cccc([C@H](CCCNc3ccncc3)C(=O)O)c2)c1`, the IC50 against Prothrombin is greater than 100 µM; at Coagulation factor X [1], 0.00272 µM.

Regarding `CC1CNc2c(cccc2S(=O)(=O)N[C@@H](CCCN=C(N)N)C(=O)N2CC[C@@H](C)CC2C(=O)O)C1` (some centres undefined), the figures for the Ki on Coagulation factor X [2] and at Serine protease 1 were 210 µM and 5 µM, respectively.
